The source made the active and inactive calls. The calls are words filed in the database; no cut-off is given here.
Assays:
Canis familiaris = test: Antianxiety activity in po dosed dog assessed as ataxia administered as single dose measured up to 24 hrs; assay type: functional; conditions: Canis lupus familiaris, read-out: MED
Rattus norvegicus [1] = test: Antihypertensive activity in spontaneously hypertensive rat model assessed as reduction in blood pressure at 10 mg/kg, po after 3 hrs; assay type: functional; set-up: scale not given: the % may be the effect or the level left
Felis catus [2] = test: Hypnotic activity in cat assessed as increase in total sleep time at 1 mg/kg administered orally through diet measured for 12 hrs by EEG analysis; assay type: functional; conditions: route oral
Felis catus [3] = test: Hypnotic activity in cat assessed as increase in non-REM sleep time at 0.5 mg/kg administered orally through diet measured for 12 hrs by EEG analysis; assay type: functional; conditions: route oral
Rattus norvegicus [4] = test: Antipsychotic activity in rat assessed as reduction of methamphetamine-induced hyperactivity at 10 mg/kg, po administered prior to methamphetamine challenge relative to vehicle-treated control; assay type: functional; set-up: scale not given: the % may be the effect or the level left
Mus musculus [5] = test: Antianxiety activity in albino BALB/cJ mouse assessed as reduction in footshock-induced fighting behavior at 10 mg/kg, po after 30 to 90 mins; assay type: functional; set-up: scale not given: the % may be the effect or the level left
Rattus norvegicus [6] = test: Antihypertensive activity in spontaneously hypertensive rat model assessed as reduction in blood pressure at 3 mg/kg, po after 24 hrs; assay type: functional; set-up: scale not given: the % may be the effect or the level left
[7] = Acute toxicity in po dosed mouse; assay type: organism-based; conditions: in vivo
Felis catus [8] = test: Hypnotic activity in cat assessed as increase in total sleep time at 0.1 mg/kg administered orally through diet measured for 12 hrs by EEG analysis; assay type: functional; conditions: route oral
Rattus norvegicus [9] = test: Antihypertensive activity in spontaneously hypertensive rat model assessed as reduction in blood pressure at 3 mg/kg, po after 3 hrs; assay type: functional; set-up: scale not given: the % may be the effect or the level left
Rattus norvegicus [10] = test: Antihypertensive activity in spontaneously hypertensive rat model assessed as reduction in blood pressure at 10 mg/kg, po after 24 hrs; assay type: functional; set-up: scale not given: the % may be the effect or the level left
Mus musculus [11] = test: Analgesic activity in po dosed mouse assessed as inhibition of acetic acid-induced writhing administered 30 mins prior to acetic acid challenge measured after 5 mins for 20 mins; assay type: functional
Felis catus [12] = test: Hypnotic activity in cat assessed as increase in non-REM sleep time at 0.1 mg/kg administered orally through diet measured for 12 hrs by EEG analysis; assay type: functional; conditions: route oral
Rattus norvegicus [13] = test: Antiulcer activity in albino Sprague-Dawley rat reserpine ulcer model assessed as prevention of reserpine-induced gastric lesions by measuring ulcer index scores at 10 mg/kg, po administered 30 mins prior to reserpine challenge measured after 6 hrs; assay type: functional; conditions: Stomach
Mus musculus [14] = test: Antidepressant activity in po dosed mouse assessed as potentiation of DOPA-induced effect administered 4 hrs prior to DOPA challenge; assay type: functional; conditions: read-out: MED
Rattus norvegicus [15] = organism: Rattus norvegicus; test: animal or person; assay type: functional; conditions: Charles River, route oral
Description: Antidiarrheal activity in Charles River rat assessed as inhibition of castor oil-induced diarrhea by measuring protected animals at 1 mg/kg, po administered 1 hr prior to castor oil challenge measured after 1 hr relative to vehicle-treated control

Felis catus [16] = test: Hypnotic activity in cat assessed as decrease in total sleep time at 0.025 mg/kg administered orally through diet measured for 12 hrs by EEG analysis; assay type: functional; conditions: route oral
Rattus norvegicus [17] = test: Antidiarrheal activity in Charles River rat assessed as inhibition of castor oil-induced diarrhea by measuring protected animals at 0.25 mg/kg, po administered 1 hr prior to castor oil challenge measured after 1 hr relative to vehicle-treated control; assay type: functional
Rattus norvegicus [18] = test: Antisecretory activity in Sprague-Dawley rat assessed as decrease in acid output at 50 mg/kg, po administered 30 mins prior to pylorus ligation measured after 4 hrs relative to control; assay type: functional; set-up: scale not given: the % may be the effect or the level left
Rattus norvegicus [19] = test: Antiulcer activity in albino Sprague-Dawley rat shay ulcer model assessed as ulcer index scores at 50 mg/kg administered intraduodenally post pyloric ligation measured after 18.5 hrs relative to vehicle-treated control; assay type: functional; conditions: route intraduodenal
Felis catus [20] = test: Hypnotic activity in cat assessed as increase in non-REM sleep time at 0.25 mg/kg administered orally through diet measured for 12 hrs by EEG analysis; assay type: functional; conditions: route oral
Rattus norvegicus [21] = test: Antiulcer activity in albino Sprague-Dawley rat stress ulcer model assessed as prevention of stress-induced gastric lesions by measuring ulcer index score at 40 mg/kg, po administered 30 mins prior to stress measured after 4 hrs; assay type: functional, Stomach
Felis catus [22] = test: Hypnotic activity in cat assessed as increase in total sleep time at 0.5 mg/kg administered orally through diet measured for 12 hrs by EEG analysis; assay type: functional; conditions: route oral
Rattus norvegicus [23] = test: Antiulcer activity in albino Sprague-Dawley rat stress ulcer model assessed as prevention of stress-induced gastric lesions by measuring ulcer index score at 10 mg/kg, po administered 30 mins prior to stress measured after 4 hrs; assay type: functional, Stomach
Rattus norvegicus [24] = test: Antiulcer activity in albino Sprague-Dawley rat shay ulcer model assessed as ulcer index scores at 20 mg/kg administered intraduodenally post pyloric ligation measured after 18.5 hrs relative to vehicle-treated control; assay type: functional; conditions: route intraduodenal
Felis catus [25] = test: Hypnotic activity in cat assessed as increase in total sleep time at 0.25 mg/kg administered orally through diet measured for 12 hrs by EEG analysis; assay type: functional; conditions: route oral
Rattus norvegicus [26] = test: Antianxiety activity in Long-Evans rat assessed as reduction in motor activity at 1 mg/kg, po after 2 hrs relative to vehicle-treated control; assay type: functional; set-up: scale not given: the % may be the effect or the level left
Rattus norvegicus [27] = test: Antianxiety activity in Long-Evans rat assessed as reduction in motor activity at 10 mg/kg, po after 2 hrs relative to vehicle-treated control; assay type: functional; set-up: scale not given: the % may be the effect or the level left
Rattus norvegicus [28] = test: Antisecretory activity in Sprague-Dawley rat assessed as decrease in acidity at 50 mg/kg, po administered 30 mins prior to pylorus ligation measured after 4 hrs relative to control; assay type: functional; set-up: scale not given: the % may be the effect or the level left
Mus musculus [29] = test: Antianxiety activity in albino BALB/cJ mouse assessed as reduction in footshock-induced fighting behavior at 1 mg/kg, po after 30 to 90 mins; assay type: functional; set-up: scale not given: the % may be the effect or the level left
Rattus norvegicus [30] = organism: Rattus norvegicus; test: animal or person; assay type: functional; conditions: Charles River, route oral; remark: listed apart in the source
Description: Antidiarrheal activity in Charles River rat assessed as inhibition of castor oil-induced diarrhea by measuring protected animals at 0.5 mg/kg, po administered 1 hr prior to castor oil challenge measured after 1 hr relative to vehicle-treated control

Felis catus [31] = test: Hypnotic activity in cat assessed as increase in non-REM sleep time at 0.025 mg/kg administered orally through diet measured for 12 hrs by EEG analysis; assay type: functional; conditions: route oral
Rattus norvegicus [32] = test: Antiulcer activity in albino Sprague-Dawley rat reserpine ulcer model assessed as prevention of reserpine-induced gastric lesions by measuring ulcer index scores at 50 mg/kg, po administered 30 mins prior to reserpine challenge measured after 6 hrs; assay type: functional, Stomach
Rattus norvegicus [33] = test: Antisecretory activity in Sprague-Dawley rat assessed as decrease in pepsin output at 50 mg/kg, po administered 30 mins prior to pylorus ligation measured after 4 hrs relative to control; assay type: functional; set-up: scale not given: the % may be the effect or the level left
Rattus norvegicus [34] = test: Antiulcer activity in albino Sprague-Dawley rat shay ulcer model assessed as ulcer index scores at 40 mg/kg administered intraduodenally post pyloric ligation measured after 18.5 hrs relative to vehicle-treated control; assay type: functional; conditions: route intraduodenal
Rattus norvegicus [35] = test: Antisecretory activity in Sprague-Dawley rat assessed as decrease in volume at 50 mg/kg, po administered 30 mins prior to pylorus ligation measured after 4 hrs relative to control; assay type: functional; set-up: scale not given: the % may be the effect or the level left
Rattus norvegicus [36] = test: Antipsychotic activity in rat assessed as reduction of methamphetamine-induced hyperactivity at 5 mg/kg, po administered prior to methamphetamine challenge relative to vehicle-treated control; assay type: functional; set-up: scale not given: the % may be the effect or the level left
Rattus norvegicus [37] = test: Antianxiety activity in Long-Evans rat assessed as reduction in motor activity at 0.5 mg/kg, po after 2 hrs relative to vehicle-treated control; assay type: functional; set-up: scale not given: the % may be the effect or the level left
Rattus norvegicus [38] = test: Increase in pepsin output in Sprague-Dawley rat at 50 mg/kg, po administered 30 mins prior to pylorus ligation measured after 4 hrs relative to control; assay type: functional
Rattus norvegicus [39] = test: Antisecretory activity in Sprague-Dawley rat assessed as decrease in pepsin concentration at 50 mg/kg, po administered 30 mins prior to pylorus ligation measured after 4 hrs relative to control; assay type: functional; set-up: scale not given: the % may be the effect or the level left
Rattus norvegicus [40] = test: Antihypertensive activity in spontaneously hypertensive rat model assessed as reduction in blood pressure at 30 mg/kg, po after 3 hrs; assay type: functional; set-up: scale not given: the % may be the effect or the level left
Rattus norvegicus [41] = test: Antihypertensive activity in spontaneously hypertensive rat model assessed as reduction in blood pressure at 30 mg/kg, po after 24 hrs; assay type: functional; set-up: scale not given: the % may be the effect or the level left
Rattus norvegicus [42] = test: Increase in motor activity in Long-Evans rat at 5 mg/kg, po after 2 hrs relative to vehicle-treated control; assay type: functional
Mus musculus [43] = test: Analgesic activity in mouse assessed as inhibition of acetic acid-induced writhing at 100 mg/kg, po administered 30 mins prior to acetic acid challenge measured after 5 mins for 20 mins; assay type: functional
Rattus norvegicus [44] = test: Increase in methamphetamine-induced hyperactivity in rat at 5 mg/kg, po administered prior to methamphetamine challenge relative to vehicle-treated control; assay type: functional
Rattus norvegicus [45] = test: Increase in volume in Sprague-Dawley rat at 50 mg/kg, po administered 30 mins prior to pylorus ligation measured after 4 hrs relative to control; assay type: functional
Rattus norvegicus [46] = test: Increase in acid output in Sprague-Dawley rat at 50 mg/kg, po administered 30 mins prior to pylorus ligation measured after 4 hrs relative to control; assay type: functional
Rattus norvegicus [47] = test: Analgesic activity in po dosed Sprague-Dawley rat after 15 to 90 mins by tail flick test; assay type: functional
Rattus norvegicus [48] = test: Antianxiety activity in Long-Evans rat assessed as reduction in motor activity at 100 mg/kg, po after 2 hrs relative to vehicle-treated control; assay type: functional; set-up: scale not given: the % may be the effect or the level left
Rattus norvegicus [49] = test: Increase in motor activity in Long-Evans rat at 10 mg/kg, po after 2 hrs relative to vehicle-treated control; assay type: functional
Mus musculus [50] = test: Analgesic activity in mouse assessed as inhibition of acetic acid-induced writhing at 10 mg/kg, po administered 30 mins prior to acetic acid challenge measured after 5 mins for 20 mins; assay type: functional

C#CCN1CCC2=C(C1)c1c(O)cc(C(C)C(C)CCCCC)cc1OC2(C)C (centres undefined)
minimal effective dose (Canis familiaris): 1 mg/kg
Activity (Rattus norvegicus [1]): 23%
Time (Felis catus [2]): 39 min
Time (Felis catus [3]): 28 min
Activity (Rattus norvegicus [4]): 74%
Activity (Mus musculus [5]): 62%
Activity (Rattus norvegicus [6]): 4%
LD50 [7]: ≥ 1000 mg/kg
Time (Felis catus [8]): 100 min
Activity (Rattus norvegicus [9]): 7%
Activity (Rattus norvegicus [10]): 27%
ED50 (Mus musculus [11]): 4.3 mg/kg
Time (Felis catus [12]): 62 min
Activity (Rattus norvegicus [13]): inactive
minimal effective dose (Mus musculus [14]): 2 mg/kg
inhibition in vivo at 1 mg/kg (Rattus norvegicus [15]): 100%
Time (Felis catus [16]): -12 min
inhibition in vivo at 0.25 mg/kg (Rattus norvegicus [17]): 20%
Activity (Rattus norvegicus [18]): 49.8%
UI (Rattus norvegicus [19]): 0.5
Time (Felis catus [20]): 21 min
UI (Rattus norvegicus [21]): 1.6
Time (Felis catus [22]): 44 min
UI (Rattus norvegicus [23]): 1.3
UI (Rattus norvegicus [24]): 4.2
Time (Felis catus [25]): 56 min
Activity (Rattus norvegicus [26]): 71%
Activity (Rattus norvegicus [27]): 75%
Activity (Rattus norvegicus [28]): 23.5%
Activity (Mus musculus [29]): 42%
inhibition in vivo at 0.5 mg/kg (Rattus norvegicus [30]): 63%
Time (Felis catus [31]): 25 min
UI (Rattus norvegicus [32]): 1.8
Activity (Rattus norvegicus [33]): 41.9%
UI (Rattus norvegicus [34]): 0.3
Activity (Rattus norvegicus [35]): 39.3%
Activity (Rattus norvegicus [36]): 52%
Activity (Rattus norvegicus [37]): 35%

C#CCN1CCC2=C(C1)c1c(O)cc(CCCCC)cc1OC2(C)C
Activity (Rattus norvegicus [38]): 18.3%
Time (Felis catus [3]): 12 min
Activity (Mus musculus [5]): 6%
LD50 [7]: ≥ 1000 mg/kg
Activity (Rattus norvegicus [39]): 8.3%
Time (Felis catus [22]): 28 min
Activity (Rattus norvegicus [40]): 0%
Activity (Rattus norvegicus [28]): 14.8%
Activity (Rattus norvegicus [41]): 9%
Activity (Rattus norvegicus [42]): 6%
inhibition in vivo at 100 mg/kg (Mus musculus [43]): 19%
Activity (Rattus norvegicus [44]): 47%
Activity (Rattus norvegicus [45]): 24.6%
Activity (Rattus norvegicus [46]): 6.1%

CC(C)=CCN1CC[C@]2(C)c3cc(O)ccc3C[C@H]1[C@H]2C [(+)-PENTAZOCINE]
ED50 (Rattus norvegicus [47]): 60 mg/kg
ED50 (Mus musculus [11]): 37.6 mg/kg
Activity (Rattus norvegicus [48]): 64%
Activity (Rattus norvegicus [27]): 30%
inhibition in vivo at 0.5 mg/kg (Rattus norvegicus [30]): 0%

C#CCN1CCC2=C(C1)c1c(O)cc(C(C)CCc3ccc(F)cc3)cc1OC2(C)C (centres undefined)
Activity (Rattus norvegicus [4]): 0%
Activity (Mus musculus [5]): 0%
Activity (Rattus norvegicus [49]): 44%
LD50 [7]: ≥ 1000 mg/kg
inhibition in vivo at 10 mg/kg (Mus musculus [50]): 10%
Activity (Rattus norvegicus [40]): 4%
Activity (Rattus norvegicus [41]): 13%

— ChEMBL document CHEMBL3272295, “Drugs derived from cannabinoids. 5. delta6a,10a-Tetrahydrocannabinol and heterocyclic analogs containing aromatic side chains” (J Med Chem, 1976)
